Source: the NIST ThermoML archive (doi:10.1021/je800157v)

Test: xn = mol fraction of the nth substance listed
Settings: 101 kPa, Liquid

ClC(Cl)Cl [trichloromethane] + CCC(C)O
mass density [kg/m3]
Settings | 288.15 K | 293.15 K | 298.15 K | 303.15 K | 308.15 K | 313.15 K
x2 = 0 | 1498.08 | 1488.64 | 1479.15 | 1469.61 | 1460.03 | 1450.41
x2 = 0.0514 | 1455.49 | 1446.33 | 1437.12 | 1427.86 | 1418.55 | 1409.22
x2 = 0.1045 | 1413.17 | 1404.26 | 1395.31 | 1386.31 | 1377.26 | 1368.2
x2 = 0.1518 | 1376.62 | 1367.94 | 1359.22 | 1350.44 | 1341.17 | 1332.78
x2 = 0.1962 | 1342.92 | 1334.49 | 1326.01 | 1317.48 | 1308.89 | 1300.27
x2 = 0.2512 | 1302.06 | 1293.92 | 1285.73 | 1277.49 | 1269.19 | 1260.86
x2 = 0.2998 | 1266.64 | 1258.77 | 1250.84 | 1242.86 | 1234.82 | 1226.74
x2 = 0.3507 | 1230.33 | 1222.74 | 1215.09 | 1207.39 | 1199.64 | 1191.86
x2 = 0.3995 | 1196.11 | 1188.78 | 1181.4 | 1173.96 | 1166.47 | 1158.94
x2 = 0.4502 | 1161.11 | 1154.06 | 1146.95 | 1139.78 | 1132.56 | 1125.28
x2 = 0.4978 | 1128.73 | 1121.94 | 1115.08 | 1108.17 | 1101.2 | 1094.2
x2 = 0.546 | 1096.47 | 1089.93 | 1083.34 | 1076.68 | 1069.96 | 1063.21
x2 = 0.6008 | 1060.39 | 1054.14 | 1047.83 | 1041.47 | 1035.03 | 1028.55
x2 = 0.6498 | 1028.63 | 1022.64 | 1016.59 | 1010.48 | 1004.3 | 998.07
x2 = 0.7008 | 995.87 | 990.15 | 984.37 | 978.52 | 972.61 | 966.65
x2 = 0.7446 | 968.17 | 962.68 | 957.13 | 951.51 | 945.82 | 940.07
x2 = 0.7984 | 934.4 | 929.2 | 923.93 | 918.6 | 913.19 | 907.74
x2 = 0.8507 | 901.92 | 897 | 892.02 | 886.97 | 881.84 | 876.65
x2 = 0.9 | 871.62 | 866.99 | 862.29 | 857.51 | 852.65 | 847.72
x2 = 0.9486 | 841.91 | 837.56 | 833.14 | 828.64 | 824.05 | 819.39

CCC(C)O (stereo unspecified) [butan-2-ol] + c1ccccc1
mass density [kg/m3]
Settings | 288.15 K | 293.15 K | 298.15 K | 303.15 K | 308.15 K | 313.15 K
x1 = 0.0511 | 879.01 | 873.67 | 868.33 | 862.98 | 857.61 | 852.24
x1 = 0.0995 | 874.6 | 869.29 | 863.96 | 858.62 | 853.25 | 847.89
x1 = 0.1508 | 870.04 | 864.77 | 859.48 | 854.17 | 848.83 | 843.48
x1 = 0.2013 | 865.76 | 860.54 | 855.3 | 850.02 | 844.72 | 839.39
x1 = 0.2482 | 861.91 | 856.74 | 851.54 | 846.3 | 841.03 | 835.75
x1 = 0.2999 | 857.8 | 852.69 | 847.54 | 842.35 | 837.13 | 831.88
x1 = 0.3486 | 854.03 | 848.96 | 843.86 | 838.72 | 833.54 | 828.34
x1 = 0.3995 | 850.21 | 845.2 | 840.14 | 835.05 | 829.92 | 824.76
x1 = 0.4509 | 846.44 | 841.48 | 836.49 | 831.44 | 826.35 | 821.21
x1 = 0.5003 | 842.93 | 838.02 | 833.08 | 828.08 | 823.04 | 817.96
x1 = 0.5498 | 839.48 | 834.64 | 829.75 | 824.82 | 819.82 | 814.8
x1 = 0.5953 | 836.41 | 831.62 | 826.79 | 821.91 | 816.96 | 811.96
x1 = 0.6487 | 832.84 | 828.13 | 823.37 | 818.56 | 813.68 | 808.75
x1 = 0.7006 | 829.46 | 824.83 | 820.15 | 815.4 | 810.59 | 805.73
x1 = 0.7493 | 826.32 | 821.78 | 817.17 | 812.5 | 807.75 | 802.95
x1 = 0.802 | 822.97 | 818.51 | 814 | 809.41 | 804.74 | 800.01
x1 = 0.8501 | 819.96 | 815.6 | 811.17 | 806.66 | 802.07 | 797.4
x1 = 0.9003 | 816.84 | 812.58 | 808.25 | 803.84 | 799.34 | 794.77
x1 = 0.9206 | 815.57 | 811.36 | 807.07 | 802.7 | 798.25 | 793.72
x1 = 0.9479 | 813.92 | 809.76 | 804.85 | 801.21 | 796.18 | 791.73
x1 = 1 | 810.64 | 806.59 | 802.47 | 798.27 | 793.97 | 789.59
